Molecular target: cGMP-specific 3',5'-cyclic phosphodiesterase PDE5 (Oryctolagus cuniculus)
Test: Inhibition of phosphodiesterase 5 of rabbit platelets

IC50: 0.29 nM
Structure (SMILES): CCCOc1ccc(S(=O)(=O)N2CCC(CCP(=O)(O)OCC)CC2)cc1-c1nc2c(CCC)nn(C)c2c(=O)[nH]1 [(2-{1-[3-(1-Methyl-7-oxo-3-propyl-6,7-dihydro-1H-pyrazolo[4,3-d]pyrimidin-5-yl)-4-propoxy-benzenesulfonyl]-piperidin-4-yl}-ethyl)-phosphonic acid monoethyl ester]
